Test results from patent US5663159A, “Prodrugs of phosphonates” (Institute of Organic Chemistry and Biochemistry of the …, priority 1994, dated 1997).
Converted amounts (≈) assume the structure as drawn. “Also recorded” adds a separate entry of the source. Structures can show the parent of a compound that is named as a salt. Where two headings read alike, the source gives them in different places.

Key:
[1] = system: herpes simplex virus, type 2 (HSV-2); conditions: literature; cited from earlier work
[2] = system: herpes simplex virus, type 1 (HSV-1); conditions: literature; cited from earlier work
[3] = Toxicity in the in vitro HSV-2 test
[4] = system: HSV-2 (G STRAIN); assay: In vitro activity of PMEA prodrugs against HSV-2 (G strain), plaque reduction; assay type: cell-based; conditions: for ID50: dose which gives a 50% reduction of plaque formation; for IC50: Human alphaherpesvirus 2, dose which gives a 50% reduction of plaque formation, read-out: ID50 (the source's name)
Source text: PRODRUGS AGAINST HSV-2 (G STRAIN)
^a DOSE WHICH GIVES A 50% REDUCTION OF PLACQUE FORMATION

[5] = in vitro
[6] = system: human immunodeficiency virus (HIV); conditions: literature, cited from earlier work
[7] = system: equid herpesviruse type 1 (equine abortion virus, EHV-1); conditions: literature; cited from earlier work
[8] = system: murine sarcoma virus (MSV); conditions: literature; cited from earlier work
[9] = system: adenovirus; conditions: literature; cited from earlier work
[10] = system: varicella zoster virus (VZV); conditions: literature; cited from earlier work
[11] = system: human cytomegalovirus (HCMV); conditions: literature; cited from earlier work
[12] = system: phocid herpesvirus type 1 (seal herpesvirus, SeHV); conditions: literature; cited from earlier work
[13] = system: suid herpesvirus type 1 (SHV-1, or pseudorabies virus or Aujeszky's disease virus); conditions: literature; cited from earlier work
[14] = system: vaccinia virus; conditions: literature; cited from earlier work
[15] = system: simian herpesvirus platyrrhinae (HVP); conditions: literature; cited from earlier work
[16] = system: P388 leukemia; conditions: murine tumor model; cited from earlier work
[17] = system: thymidine kinase-deficient (TK^-) mutants of herpes simplex; conditions: literature; cited from earlier work
[18] = system: herpes simplex virus type 1; conditions: mice in vivo; including herpetic keratitis caused by a TK^- mutant; cited from earlier work
[19] = system: bovid herpesvirus type 1 (infectious bovine rhinotracheitis virus, BHV-1); conditions: literature; cited from earlier work
[20] = system: African swine fever (ASF) virus; conditions: literature; cited from earlier work
[21] = system: herpes simplex virus type 1; conditions: rabbits in vivo; including herpetic keratitis caused by a TK^- mutant; cited from earlier work
[22] = system: murine cytomegalovirus (MCMV); conditions: cited from earlier work
[23] = system: Rauscher murine leukemia virus (R-MuLV); conditions: cited from earlier work
[24] = system: Rauscher murine leukemia virus (R-MuLV); conditions: mice; vs 3'-azido-3'-deoxythymidine (AZT); cited from earlier work
[25] = system: HSV 1; conditions: in vivo, mice; more potent than acyclovir; cited from earlier work
[26] = system: herpes viruses; conditions: cited from earlier work
[27] = system: B16 melanoma; conditions: murine tumor model; cited from earlier work

In the case of `Nc1nc(N)c2ncn(C[C@@H](CO)OCP(=O)(O)O)c2n1` [(S)-HPMPDAP], the “activity against HSV-2” value [1] is listed as “active” and the “activity against HSV-1” value [2] is listed as “active”.
With `Nc1ncnc2c1ncn2CCOCP(=O)(O)Oc1ccccc1` [Example 34, PMEA, monophenyl ester (sodium salt)] the CC50 [3] was greater than 166 µg/mL and the ID50 [4] was 42 µg/mL.
For `Nc1nc2c(ncn2C[C@@H](CO)OCP(=O)(O)O)c(=O)[nH]1` [(S)-HPMPG], the “activity against HSV-2” value [1] is listed as “active” and the “activity against HSV-1” value [2] is listed as “active”.
`CC(C)C(=O)OCOP(=O)(COCCn1cnc2c(N)ncnc21)OCOC(=O)C(C)C` [Example 13, PMEA, di-(isobutyrloxymethyl ester)] showed an IC50 [4] of less than 0.1 µg/mL and a CC50 [5] of 100 µg/mL (≈ 211 µM).
For `Nc1ncnc2c1ncn2CCOCP(=O)(O)OCCCO` [Example 22, PMEA, 3-hydroxypropanyl ester, (sodium salt)], the IC50 [4] was 110 µg/mL and the CC50 [5] was greater than 166 µg/mL.
For `Nc1ncc2ncn(CCOCP(=O)(O)O)c2n1` [PMEMAP], the “activity against HIV” value [6] is given as “active”.
In the case of `Nc1ncnc2c1ncn2C[C@@H](CO)OCP(=O)(O)O` [(S)-HPMPA, (S)-9-((3-hydroxy-2-phosphonylmethoxy)propyl)adenine], the “activity against EHV-1” value [7] is listed as “potent and selective activity”, the “activity against MSV” value [8] is listed as “potent and selective activity” and the activity against adenovirus [9] is listed as “potent and selective activity; also recorded: active”. For the same compound, the “activity against VZV” value [10] was “potent and selective activity; also recorded: active”, the “activity against HCMV” value [11] was “potent and selective activity” and the “activity against SeHV” value [12] was “potent and selective activity”. For the same compound, the “activity against SHV-1” value [13] was “potent and selective activity”, the “activity against vaccinia virus” value [14] was “potent and selective activity; also recorded: active” and the “activity against HVP” value [15] was “potent and selective activity”. For the same compound, the “activity against intraperitoneal P388 leukemia” value [16] was “active”, the “activity against HSV-2” value [1] was “potent and selective activity; also recorded: active” and the “activity against HSV-1” value [2] was “potent and selective activity; also recorded: active”. The “activity against TK^- mutants of herpes simplex” value [17] was “potent and selective activity”, the “efficacy against local and systemic HSV-1 infections” value [18] was “effective” and the “activity against BHV-1” value [19] was “potent and selective activity”. For the same compound, the “activity against ASF virus” value [20] was “potent and selective activity” and the “efficacy against local and systemic HSV-1 infections” value [21] was “effective”.
Compound `CC(C)(C)C(=O)OCOP(=O)(O)COCCn1cnc2c(N)ncnc21` [Example 15, PMEA, mono pivaloyloxymethyl ester] has a CC50 [3] of 100 µg/mL (≈ 258 µM) and an IC50 [4] of 8.1 µg/mL (≈ 20.9 µM).
`CCC(=O)OCOP(=O)(COCCn1cnc2c(N)ncnc21)OCOC(=O)CC` [Example 12, PMEA, di-(propionyloxymethyl ester)] showed an IC50 [4] of 0.17 µg/mL (≈ 0.382 µM) and a CC50 [5] of 100 µg/mL (≈ 225 µM).
For `Nc1nc(N)c2ncn(CCOCP(=O)(O)O)c2n1` [PMEDAP], the “activity against HIV” value [6] is given as “active”, the “activity against HSV-2” value [1] is given as “active” and the “activity against HSV-1” value [2] is given as “active”.
In the case of `Nc1ncnc2c1ncn2C[C@H]1COP(=O)(O)CO1` [(S)-cyclic HPMPA], the activity against adenovirus [9] is given as “active”, the “activity against VZV” value [10] is given as “active” and the “activity against vaccinia virus” value [14] is given as “active”. The “activity against HSV-2” value [1] was “active” and the “activity against HSV-1” value [2] was “active”.
In the case of `Nc1ccn(C[C@@H](CO)OCP(=O)(O)O)c(=O)n1` [(S)-HPMPC], the “activity against HCMV” value [11] is given as “active”, the “activity against HSV-2” value [1] is given as “active” and the “activity against HSV-1” value [2] is given as “active”.
Work on `CC(C)OP(=O)(COCCn1cnc2c(N)ncnc21)Oc1ccccc1` (centres unmarked) [Example 16, PMEA, (mono isopropyl, monophenyl) ester] yielded a CC50 [3] of 100 µg/mL (≈ 256 µM) and an ID50 [4] greater than 100 µg/mL.
Work on `CC(C)(C)C(=O)OCOP(=O)(COCCn1cnc2c(N)ncnc21)OCOC(=O)C(C)(C)C` [Example 9, PMEA, di(pivaloyloxymethyl ester)] yielded an IC50 [4] of 0.28 µg/mL (≈ 0.558 µM) and a CC50 [5] of 100 µg/mL (≈ 199 µM).
In the case of `Nc1ncnc2c1ncn2CCOCP(=O)(O)O` [Example 1, 9-(2-Phosphonylmethoxy)ethyladenine], the “antiviral effect in vivo against MCMV” value [22] is listed as “significant antiviral effect”, the “activity against HIV” value ([6]; listed as PMEA) is listed as “active; also recorded: good in vitro activity” and the “activity against HCMV” value [11] is listed as “in vitro activity”. For the same compound, the “in vitro activity against R-MuLV” value [23] was “good in vitro activity”, the IC50 [4] was 39 µg/mL (≈ 143 µM) and the “activity against intraperitoneal P388 leukemia” value [16] was “active”. For the same compound, the CC50 [5] was greater than 166 µg/mL, the “activity against HSV-2” value [1] was “active” and the “activity against HSV-1” value [2] was “active”. The “potency in vivo relative to AZT in the treatment of R-MuLV” value [24] was “more potent in vivo”.
For `Nc1nc2c(ncn2CCOCP(=O)(O)O)c(=O)[nH]1` [PMEG], the “potency relative to acyclovir against HSV 1 infection” value [25] is given as greater than 50 fold, the “in vitro potency against herpes viruses” value [26] is given as “exceptionally potent” and the “activity against B16 melanoma” value [27] is given as “active”. The “activity against intraperitoneal P388 leukemia” value [16] was “active”, the “activity against HSV-2” value [1] was “active” and the “activity against HSV-1” value [2] was “active”.
Compound `Nc1ncnc2c1ncn2CCOCP(=O)(Oc1ccccc1)Oc1ccccc1` [Example 35, PMEA, diphenyl ester] has a CC50 [3] greater than 166 µg/mL and an ID50 [4] of 34 µg/mL (≈ 79.9 µM).
